Results from patent US9815846B2 (Merck Sharp & Dohme Corp., priority 2014, dated 2017).

Biological target: human TrkA receptor (Homo sapiens (Human), UniProt P04629)
Assay: DiscoverX PathHunter TrkA functional assay (NGF-stimulated U2OS cells)
Format: cell-based
Settings: U2OS cells expressing human TrkA-PK, Shc1-EA and p75NTR; compound 1 h, then NGF at ~80% of maximal response for 3 h; luminescence

Chain of human TrkA receptor (P04629 33-796): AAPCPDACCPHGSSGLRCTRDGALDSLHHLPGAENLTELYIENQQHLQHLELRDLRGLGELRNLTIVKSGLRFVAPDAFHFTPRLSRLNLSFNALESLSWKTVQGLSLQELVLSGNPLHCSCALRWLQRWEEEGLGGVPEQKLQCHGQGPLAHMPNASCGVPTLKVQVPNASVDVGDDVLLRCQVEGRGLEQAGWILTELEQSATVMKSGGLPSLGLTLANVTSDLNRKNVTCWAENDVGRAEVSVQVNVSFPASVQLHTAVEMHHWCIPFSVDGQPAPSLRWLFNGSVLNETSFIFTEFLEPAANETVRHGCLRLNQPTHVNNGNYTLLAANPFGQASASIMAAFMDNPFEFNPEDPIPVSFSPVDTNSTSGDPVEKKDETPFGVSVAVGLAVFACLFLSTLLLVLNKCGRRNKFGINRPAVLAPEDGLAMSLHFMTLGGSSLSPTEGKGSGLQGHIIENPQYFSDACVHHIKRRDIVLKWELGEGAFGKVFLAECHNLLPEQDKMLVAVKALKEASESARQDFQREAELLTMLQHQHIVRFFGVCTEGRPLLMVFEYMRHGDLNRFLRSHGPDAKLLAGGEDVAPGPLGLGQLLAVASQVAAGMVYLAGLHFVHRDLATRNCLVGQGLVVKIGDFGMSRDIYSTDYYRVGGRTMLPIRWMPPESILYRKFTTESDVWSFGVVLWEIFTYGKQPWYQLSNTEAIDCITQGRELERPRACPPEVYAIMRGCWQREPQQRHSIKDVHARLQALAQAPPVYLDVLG

Row | Compound | IC50 [nM]
1 | CN1CC(=O)N(Cc2ncc(NC(=O)c3cc(-c4ccn(C)n4)c(C(F)(F)F)cc3F)c(-c3ccccc3)n2)C1=O [Example 95, 2-Fluoro-5-(1-methyl-1H-pyrazol-3-yl)-N-(2-((3-methyl-2,5-dioxoimidazolidin-1-yl)methyl)-4-phenylpyrimidin-5-yl)-4-(trifluoromethyl)benzamide] | 0.11
2 | NC(=O)Cc1cc(-c2ccccc2)c(NC(=O)c2cc(-c3ccccn3)c(C(F)(F)F)cc2F)cn1 [Example 127, N-(6-(2-amino-2-oxoethyl)-4-phenylpyridin-3-yl)-2-fluoro-5-(pyridin-2-yl)-4-(trifluoromethyl)benzamide] | 6
3 | Cn1ccc(-c2cc(C(=O)Nc3cnc(C4NC(=O)NC4=O)nc3-c3ccccc3)c(F)cc2C(F)(F)F)n1 (stereo not drawn) [Example 131, N-(2-(2,5-Dioxoimidazolidin-4-yl)-4-phenylpyrimidin-5-yl)-2-fluoro-5-(1-methyl-1H-pyrazol-3-yl)-4-(trifluoromethyl)benzamide] | 4.4
4 | Cn1ccc(-c2cc(C(=O)Nc3cc(-c4ccc(C(C)(C)O)cn4)cnc3-c3ccccc3)c(F)cc2C(F)(F)F)n1 [Example 172, 2-fluoro-N-(5-(2-hydroxypropan-2-yl)-6′-phenyl-[2,3′-bipyridin]-5′-yl)-5-(1-methyl-1H-pyrazol-3-yl)-4-(trifluoromethyl)benzamide] | 0.26
5 | Cn1ccc(-c2cc(C(=O)Nc3cnc(CC4CC(=O)NC4=O)nc3-c3ccccc3)c(F)cc2C(F)(F)F)n1 (stereo not drawn) [Example 201, N-(2-((2,5-Dioxopyrrolidin-3-yl)methyl)-4-phenylpyrimidin-5-yl)-2-fluoro-5-(1-methyl-1H-pyrazol-3-yl)-4-(trifluoromethyl)benzamide] | 2.8
6 | Cn1ccc(-c2cc(C(=O)Nc3cnc(CN4CC(CO)OC4=O)nc3-c3ccccc3)c(F)cc2C(F)(F)F)n1 (single isomer, unassigned) [Example 228, (R or S)-2-fluoro-N-(2-((5-(hydroxymethyl)-2-oxooxazolidin-3-yl)methyl)-4-phenylpyrimidin-5-yl)-5-(1-methyl-1H-pyrazol-3-yl)-4-(trifluoromethyl)benzamide] | 0.66
7 | CNC(=O)Cc1ncc(NC(=O)c2ccc(C(F)(F)F)c(-c3ccn(C)n3)c2)c(-c2ccccc2)n1 [Example 103, 3-(1-methyl-1H-pyrazol-3-yl)-N-(2-(2-(methylamino)-2-oxoethyl)-4-phenylpyrimidin-5-yl)-4-(trifluoromethyl)benzamide] | 4.1
8 | Cn1ccc(-c2cc(C(=O)Nc3cnc(CC(=O)NC[C@@H]4CCCO4)nc3-c3ccccc3)c(F)cc2C(F)(F)F)n1 [Example 107, (S)-2-fluoro-5-(1-methyl-1H-pyrazol-3-yl)-N-(2-(2-oxo-2-(((tetrahydrofuran-2-yl)methyl)amino)ethyl)-4-phenylpyrimidin-5-yl)-4-(trifluoromethyl)benzamide] | 1.2
9 | NC(=O)c1ccnc(-c2cnc(-c3ccccc3)c(NC(=O)c3cc(-c4ncccn4)c(C(F)(F)F)cc3F)c2)n1 [Example 173, 2-(5-(2-fluoro-5-(pyrimidin-2-yl)-4-(trifluoromethyl)benzamido)-6-phenylpyridin-3-yl)pyrimidine-4-carboxamide] | 4.9
10 | CN(Cc1ccc(NC(=O)c2cc(-c3ccn(C)n3)c(C(F)(F)F)cc2F)c(-c2ccccc2)n1)C(N)=O [Example 78, 2-fluoro-5-(1-methyl-1H-pyrazol-3-yl)-N-(6-((1-methylureido)methyl)-2-phenylpyridin-3-yl)-4-(trifluoromethyl)benzamide] | 1.1
11 | Cn1ccc(-c2cc(C(=O)Nc3cc4c(nc3-c3ccccc3)CCN(C(N)=O)C4)c(F)cc2C(F)(F)F)n1 [Example 154, 3-(2-fluoro-5-(1-methyl-1H-pyrazol-3-yl)-4-(trifluoromethyl)benzamido)-2-phenyl-7,8-dihydro-1,6-naphthyridine-6(5H)-carboxamide] | 0.76
12 | Cc1ncc(NC(=O)c2ccc(C(F)(F)F)c(-c3ccn(C)n3)c2)c(-c2cccc(CO)c2)n1 [Example 44, N-(4-(3-(Hydroxymethyl)phenyl)-2-methylpyrimidin-5-yl)-3-(1-methyl-1H-pyrazol-3-yl)-4-(trifluoromethyl)benzamide] | 20
13 | Cn1ccc(-c2cc(C(=O)Nc3ccc(C(C)(C)O)nc3-c3ccccc3)ccc2C(F)(F)F)n1 [Example 47, N-(6-(2-hydroxypropan-2-yl)-2-phenylpyridin-3-yl)-3-(1-methyl-1H-pyrazol-3-yl)-4-(trifluoromethyl)benzamide] | 1.3
14 | Cn1ccc(-c2cc(C(=O)Nc3cc4c(nc3-c3ccccc3)CCN(CC(=O)O)C4)ccc2C(F)(F)F)n1 [Example 157, 2-(3-(3-(1-methyl-1H-pyrazol-3-yl)-4-(trifluoromethyl)benzamido)-2-phenyl-7,8-dihydro-1,6-naphthyridin-6(5H)-yl)acetic acid] | 23
15 | Cn1ccc(-c2cc(C(=O)Nc3cnc(CN4C[C@@H](O)[C@@H](O)C4)nc3-c3ccccc3)c(F)cc2C(F)(F)F)n1 [Example 184, N-(2-(((3S,4R)-3,4-dihydroxypyrrolidin-1-yl)methyl)-4-phenylpyrimidin-5-yl)-2-fluoro-5-(1-methyl-1H-pyrazol-3-yl)-4-(trifluoromethyl)benzamide] | 4.1
16 | Cn1ccc(-c2cnc(N3CCC[C@@H]3CO)c(NC(=O)c3cc(-c4ncccn4)c(C(F)(F)F)cc3F)c2)n1 [Example 138, (R)-2-fluoro-N-(2-(2-(hydroxymethyl)pyrrolidin-1-yl)-5-(1-methyl-1H-pyrazol-3-yl)pyridin-3-yl)-5-(pyrimidin-2-yl)-4-(trifluoromethyl)benzamide] | 27
17 | O=C(Nc1cc2c(nc1-c1ccccc1)C(=O)NC2=O)c1cc(-c2ncccn2)c(C(F)(F)F)cc1F [Example 185, N-(5,7-Dioxo-2-phenyl-6,7-dihydro-5H-pyrrolo[3,4-b]pyridin-3-yl)-2-fluoro-5-(pyrimidin-2-yl)-4-(trifluoromethyl)benzamide] | 18
18 | Cn1ccc(-c2cc(C(=O)Nc3ccc(CN4C(=O)CNC4=O)nc3-c3ccccc3)c(F)cc2C(F)(F)F)n1 [Example 98, N-(6-((2,5-dioxoimidazolidin-1-yl)methyl)-2-phenylpyridin-3-yl)-2-fluoro-5-(1-methyl-1H-pyrazol-3-yl)-4-(trifluoromethyl)benzamide] | 0.22
19 | Cn1ccc(-c2cc(C(=O)Nc3cnc(CC4NC(=O)NC4=O)nc3-c3ccccc3)ccc2C(F)(F)F)n1 (single isomer, unassigned) [Example 190, (R or S)—N-(2-(2,5-Dioxoimidazolidin-4-yl)methyl)-4-phenylpyrimidin-5-yl)-3-(1-methyl-1H-pyrazol-3-yl)-4-(trifluoromethyl)benzamide] | 1.8
20 | Cn1ccc(-c2cc(C(=O)Nc3cc(C(=O)O)cnc3-c3ccccc3)c(F)cc2C(F)(F)F)n1 [Example 81, 5-(2-Fluoro-5-(1-methyl-1H-pyrazol-3-yl)-4-(trifluoromethyl)benzamido)-6-phenylnicotinic acid] | 14
21 | Cn1ccc(-c2cc(C(=O)Nc3cnc(CC(=O)NCC4CCOC4)nc3-c3ccccc3)c(F)cc2C(F)(F)F)n1 (stereo not drawn) [Example 112, 2-fluoro-5-(1-methyl-1H-pyrazol-3-yl)-N-(2-(2-oxo-2-(((tetrahydrofuran-3-yl)methyl)amino)ethyl)-4-phenylpyrimidin-5-yl)-4-(trifluoromethyl)benzamide] | 6.5
22 | CC(=O)NCc1cccc(-c2nc(C)ncc2NC(=O)c2cc(-c3ccn(C)n3)c(C(F)(F)F)cc2F)c1 [Example 132, N-(4-(3-(Acetamidomethyl)phenyl)-2-methylpyrimidin-5-yl)-2-fluoro-5-(1-methyl-1H-pyrazol-3-yl)-4-(trifluoromethyl)benzamide] | 16
23 | COCC(=O)NCc1ccc(NC(=O)c2cc(-c3ccn(C)n3)c(C(F)(F)F)cc2F)c(-c2ccccc2)n1 [Example 58, 2-fluoro-N-(6-((2-methoxyacetamido)methyl)-2-phenylpyridin-3-yl)-5-(1-methyl-1H-pyrazol-3-yl)-4-(trifluoromethyl)benzamide] | 0.19
24 | Cn1ccc(-c2cc(C(=O)Nc3cnc(CN4CCNC4=O)nc3-c3ccccc3)c(F)cc2C(F)(F)F)n1 [Example 77, 2-fluoro-5-(1-methyl-1H-pyrazol-3-yl)-N-(2-((2-oxoimidazolidin-1-yl)methyl)-4-phenylpyrimidin-5-yl)-4-(trifluoromethyl)benzamide] | 1
25 | Cc1nc(CO)c(NC(=O)c2ccc(C(F)(F)F)c(-c3ccn(C)n3)c2)c(-c2ccccc2)n1 [Example 46, N-(4-(Hydroxymethyl)-2-methyl-6-phenylpyrimidin-5-yl)-3-(1-methyl-1H-pyrazol-3-yl)-4-(trifluoromethyl)benzamide] | 24
26 | Cn1ccc(-c2cc(C(=O)Nc3ccc(C4CCNC4=O)nc3-c3ccccc3)ccc2C(F)(F)F)n1 (single isomer, unassigned) [Example 186, (R or S)-3-(1-Methyl-1H-pyrazol-3-yl)-N-(6-(2-oxopyrrolidin-3-yl)-2-phenylpyridin-3-yl)-4-(trifluoromethyl)benzamide] | 5
27 | Cn1ccc(-c2cc(C(=O)Nc3cnc(C(O)C(N)=O)nc3-c3ccccc3)c(F)cc2C(F)(F)F)n1 (stereo not drawn) [Example 118, N-(2-(2-amino-1-hydroxy-2-oxoethyl)-4-phenylpyrimidin-5-yl)-2-fluoro-5-(1-methyl-1H-pyrazol-3-yl)-4-(trifluoromethyl)benzamide] | 3.8
28 | NC(=O)Cc1ncc(NC(=O)c2cc(-c3ccccn3)c(C(F)(F)F)cc2F)c(-c2ccccc2)n1 [Example 123, N-(2-(2-amino-2-oxoethyl)-4-phenylpyrimidin-5-yl)-2-fluoro-5-(pyridin-2-yl)-4-(trifluoromethyl)benzamide] | 8.4
29 | Cc1coc(-c2cc(C(=O)Nc3cnc(C)nc3-c3ccccc3)ccc2C(F)(F)F)n1 [Example 29, 3-(4-methyl-1,3-oxazol-2-yl)-N-(2-methyl-4-phenylpyrimidin-5-yl)-4-(trifluoromethyl)benzamide] | 4
30 | Cc1ncc(NC(=O)c2cc(-c3ncccn3)c(C(F)(F)F)cc2F)c(-c2ccccc2)n1 [Example 28, 2-fluoro-N-(2-methyl-4-phenylpyrimidin-5-yl)-5-pyrimidin-2-yl-4-(trifluoromethyl)benzamide] | 9.6
